Measurements: patent publication US20180264094A1, “PERSONALISED IMMUNOGENIC PEPTIDE IDENTIFICATION PLATFORM” (priority 2017, published 2018)
Entries after “also recorded” stand apart in the source; their conditions may differ. Where no end group is shown, it is not given here.

What was measured:
[1] = in vivo; cited from earlier work
[2] = tested on: glioblastoma multiforme (GBM); settings: cited from earlier work
EGFRvIII = settings: cited from earlier work
T cell responses = settings: percentage of study subjects with positive T cell responses measured in the clinical trials; cited from earlier work
[3] = tested on: Vaccine antigen specific CTL responses; settings: published immune response rate (CTL) of the clinical study population; cited from earlier work
[4] = published Disease Control Rate (ORR where no DCR data), RECIST; cited from earlier work
[5] = tested on: metastatic ovarian adenocarcinoma; assay: MRI of tumor lesions of patient treated with PIT vaccine (Table 28); assay type: in vivo, human; settings: before PIT vaccine
Source text: • Disease was confined primarily to liver and lymph nodes. The use of MRI limits detection of lung (pulmonary) metastasis • May 2016-January 2017: Olaparib treatment • Dec. 25, 2016 (before PIT vaccine treatment) There was dramatic reduction in tumor burden with confirmation of response obtained at FU2 • January-March 2017—TOPO protocol (topoisomerase) • Apr. […] 21 2017 START PIT • Jul. […] 26, 2017—CBP+Gem+Avastin • Sep.

[6] = cited from earlier work

In the case of Infliximab, the ADA-related adverse event [1] is listed as “anaphylaxis”.
For “LEEKKGNYVVTDHC (also: conjugated to KLH) [Rindopepimut, 13-amino-acid peptide vaccine spanning the EGFRvIII mutation with additional C-terminal cysteine]”, the “HR (overall survival)” value ([2]; Rindopepimut group versus control group, 95% CI 0.79-1.30) is listed as 1.01, the median overall survival ([2]; phase III, Rindopepimut and temozolomide (n=371)) is listed as 20.1 months and the Responders (EGFRvIII; Clinical trial (Phase II), cellular immune response by DTH reaction test, EGFRvIII-expressing GBM patients) is listed as 3/18. The Response rate (EGFRvIII; Clinical trial (Phase II), cellular immune response by DTH reaction test) was 16.6% and the “patients developing cellular immune response assessed by DTH reaction test” value (EGFRvIII; phase II, peptide conjugated to KLH, intradermal, newly diagnosed EGFRvIII-expressing GBM) was 3 out of 18.
For Abciximab, the ADA-related adverse event [1] is listed as “anaphylaxis”.
For Adalimumab, the ADA-related adverse event [1] is listed as “anti-drug antibodies and treatment failure”.
In the case of OKT3, the ADA-related adverse event [1] is given as “anaphylaxis”.
For “ALDQCKTSCALMQQHYDQTSCFSSP (additional peptide 7) [25 mer peptide vaccine, source antigen ITGB8]”, the “Response rate (Clinical Trials)” value (T cell responses) is given as 28%.
In the case of Erythropoietin, the ADA-related adverse event [1] is given as “pure red cell aplasia”.
In the case of YLEPGPVTA, the “Response rate (Clinical Trials)” value (T cell responses) is given as 28%.
For “ImMucin: anti-MUC1 signal peptide vaccine, ref 15; likely the 21 mer MTPGTQSPFFLLLLLTVLTVV”, the “Clinical Trial Response Rate” value [3] is given as 90% and the DCR [4] is given as 73%.
For “RYRKPDYTLDDGHGLLRFKST (additional peptide 5) [21 mer peptide vaccine, source antigen Abl-2]”, the “Response rate (Clinical Trials)” value (T cell responses) is listed as 17%.
In the case of recombinant factor VIII, the ADA-related adverse event [1] is listed as “anaphylaxis”.
For Pegloticase, the ADA-related adverse event [1] is listed as “anti-dug antibody, treatment failure”.
In the case of “GRGSTTTNYLLDRDDYRNTSD (additional peptide 2) [21 mer peptide vaccine, source antigen ADA17]”, the “Response rate (Clinical Trials)” value (T cell responses) is given as 11%.
For “QRPPFSQLHRFLADALNT (additional peptide 6) [18 mer peptide vaccine, source antigen DDR1]”, the “Response rate (Clinical Trials)” value (T cell responses) is listed as 17%.
For Basiliximab, the ADA-related adverse event [1] is given as “anaphylaxis”.
In the case of Epoetin, the ADA-related adverse event [1] is listed as “Antibody-mediated pure red cell aplasia”.
For “SSKALQRPV (additional peptide 11) [9 mer peptide vaccine, source antigen Bcr-Abl]”, the “Response rate (Clinical Trials)” value (T cell responses) is given as 0%.
For `CC[C@@]1(O)C(=O)OCc2c1cc1n(c2=O)Cc2cc3c(CN(C)C)c(O)ccc3nc2-1` [Hycamtin], the “Lesion response (% Δ from BL)” value ([5]; SUM, FU3, after TOPO protocol) was −68.9%, the “Lesion response (% Δ from BL)” value ([5]; TL1, FU3 (Apr. 6, 2017), after TOPO protocol) was −44.8% and the “Lesion response (% Δ from BL)” value ([5]; TL2, FU3, after TOPO protocol) was −47.1%. The “Lesion response (% Δ from BL)” value ([5]; TL3, FU3, after TOPO protocol) was −62.0% and the “Lesion response (% Δ from BL)” value ([5]; TL4, FU3, after TOPO protocol) was −100.0%.
In the case of Ustekinumab, the ADA-related adverse event [1] is given as “anti-ustekinumab antibodies, affected”.
For `O=C(c1cc(Cc2n[nH]c(=O)c3ccccc23)ccc1F)N1CCN(C(=O)C2CC2)CC1` [Olaparib], the “Lesion response (% Δ from BL)” value ([5]; SUM of target lesions, FU1, during Olaparib treatment) was −66.3%, the “Lesion response (% Δ from BL)” value ([5]; SUM, FU2, Olaparib treatment) was −76.0% and the “Lesion response (% Δ from BL)” value ([5]; TL1, FU1, patient, MRI, during Olaparib treatment) was −56.1%. For the same compound, the “Lesion response (% Δ from BL)” value ([5]; TL1, FU2 (Dec. 25, 2016), Olaparib treatment) was −44.4%, the “Lesion response (% Δ from BL)” value ([5]; TL2, FU1, during Olaparib treatment) was −100.0% and the “Lesion response (% Δ from BL)” value ([5]; TL2, FU2, Olaparib treatment) was −100.0%. The “Lesion response (% Δ from BL)” value ([5]; TL3, FU1, during Olaparib treatment) was −59.4%, the “Lesion response (% Δ from BL)” value ([5]; TL3, FU2, Olaparib treatment) was −62.3% and the “Lesion response (% Δ from BL)” value ([5]; TL4, FU1, during Olaparib treatment) was −65.8%. For the same compound, the “Lesion response (% Δ from BL)” value ([5]; TL4, FU2, Olaparib treatment) was −100.0%.
In the case of Thrombopoietin [TPO], the “most immunogenic region by State of Art class II HLA restricted epitope identification” value ([6]; EpiVax/Genentech, US20040209324 A1) is given as “C-terminal end of TPO”, the “immunotoxic region, experimental proof in published literature” value ([6]; in vivo) is given as “N-terminal end of TPO” and the “immunogenicity / anti-drug antibodies (ADA)” value ([6]; patients treated with TPO drug) is given as “highly immunogenic protein drug causing toxicity in many patients; also recorded: Most individuals treated with TPO drug made anti-drug antibodies (ADA)”. The ADA-related adverse event [1] was “thrombocitopenia”.
For Ipilimumab, the “Clinical Trial Response Rate” value [3] is listed as 72% and the DCR [4] is listed as 60%.
In the case of “LKKGAADGGKLDGNAKLNRSLK (additional peptide 3) [22 mer peptide vaccine, source antigen BAP31]”, the “Response rate (Clinical Trials)” value (T cell responses) is listed as 11%.
In the case of Factor-IX, the ADA-related adverse event [1] is given as “anaphylaxis”.
In the case of Etanercept, the ADA-related adverse event [1] is listed as “no apparent effect on safety”.
For “MTPGTQSPFFLLLLLTVLTVV (additional peptide 10)”, the “Response rate (Clinical Trials)” value (T cell responses) is listed as 90%.
In the case of “MMNLMQPKTQQTYTYD (additional peptide 1) [16 mer peptide vaccine, source antigen JUP]”, the “Response rate (Clinical Trials)” value (T cell responses) is given as 0%.
In the case of “FPPKDDHTLKFLYDDNQRPYPP (additional peptide 4) [22 mer peptide vaccine, source antigen TOP2A]”, the “Response rate (Clinical Trials)” value (T cell responses) is given as 11%.
